Test results taken from US20170333391A1, “METHOD FOR DELAYING THE ONSET OF PULMONARY FIBROSIS OR TREATING PULMONARY FIBROSIS” (EVERFRONT BIOTECH INC., priority 2016, published 2017).

What was measured:
TGF-β protein = TGF-β protein expression in transfected NHLF (pcDNA3.1 empty vector or pcDNA3.1-SOX2), western blotting (2-3); type: cell-based, human; details: TGF-β1 5 ng/ml 12 h
Experimental: The pcDNA3.1 empty vector and the pcDNA3.1-SOX2 plasmid (i.e., pcDNA3.1 vector containing SOX2 gene) were respectively transfected into Normal Human lung fibroblasts (NHLF) by the Fugene HD cell transfection reagent. The cells were screened to obtain NHLFs containing the pcDNA3.1 empty vector or the pcDNA3.1-SOX2 plasmid.
NHLFs containing the pcDNA3.1 empty vector were then seeded into 6 cm culture dishes at a density of 2×10^5 cells/dish, comprising a control group and three experimental groups (4 dishes in total). The cells were cultured until the next day, and then the mediums were removed. Each group was respectively treated under the following conditions to conduct follow-up experiments: • (1) Control group I: cells were cultured in a FGM-2 medium containing 1% serum for 36 hours; • (2) Group A: cells were cultured in a FGM-2 medium containing 1% serum and TGF-β1 (5 ng/ml) for 36 hours; • (3) Group B: cells were firstly cultured in a FGM-2 medium containing 1% serum and TGF-β1 (5 ng/ml) for 12 hours, and then compound (1) was added into the medium to provide a final concentration of 15 μg/ml; thereafter, the cells were cultured for another 24 hours; and • (4) Group C: cells were firstly cultured in a FGM-2 medium containing 1% serum and TGF-β1 (5 ng/ml) for 12 hours, and then compound (1) was added into the medium to provide a final concentration of 30 μg/ml; thereafter, the cells were cultured for another 24 hours.
In another aspect, NHLFs containing the pcDNA3.1-SOX2 plasmid were seeded into the 6 cm culture dishes at a density of 2×10^5 cells/dish, comprising a control group and three experimental groups (4 dishes in total). The cells were cultured until the next day, and then the mediums were removed. Each group was respectively treated under the following conditions to conduct follow-up experiments: • (1) Control group II: cells were cultured in a FGM-2 medium containing 1% serum for 36 hours; • (2) Group D: cells were cultured in a FGM-2 medium containing 1% serum and TGF-β1 (5 ng/ml) for 36 hours; • (3) Group E: cells were firstly cultured in a FGM-2 medium containing 1% serum and TGF-β1 (5 ng/ml) for 12 hours, and then the compound (1) was added into the medium to provide a final concentration of 15 μg/ml; thereafter, the cells were cultured for another 24 hours; and • (4) Group F: cells were firstly cultured in a FGM-2 medium containing 1% serum and TGF-β1 (5 ng/ml) for 12 hours, and then the compound (1) was added into the medium to provide a final concentration of 30 μg/ml; thereafter, the cells were cultured for another 24 hours.
Thereafter, the proteins in the cells of each group were extracted, and the expressions of Sox2 protein, TGF-β protein and type I collagen in the NHLF cells of each group were measured with western blotting. […]

[1] = test system: C57B/L6 mice injected with Bleomycin sulfate (inducer of pulmonary fibrosis); experiment: Lung tissue slice observation (H&E stain) in Bleomycin sulfate mice; type: in vivo; details: compared to oil group
Experimental: 24 C57B/L6 mice (age: four weeks) were separated into four groups (6 mice in each group). Each group was respectively treated under the following conditions to conduct follow-up experiments: • (1) Control group (mice without pulmonary fibrosis; i.e., normal mice): 50 μl of PBS was administrated to each mouse by intratracheal injection, and then the mice were fed for 30 days; • (2) Oil group: 0.6 U/50 μl of Bleomycin sulfate (dissolved in PBS) was administrated to each mouse by intratracheal injection, and then 100 μl of olive oil was orally administrated to each mouse every day for 30 days; • (3) Low-dose group: 0.6 U/50 μl of Bleomycin sulfate (dissolved in PBS) was administrated to each mouse by intratracheal injection, and then compound (1) (10 mg/kg-body weight, prepared with olive oil to provide a final volume of 100 μl) was orally administrated to each mouse every day for 30 days; and • (4) High-dose group: 0.6 U/50 μl of Bleomycin sulfate (dissolved in PBS) was administrated to each mouse by intratracheal injection, and then compound (1) (50 mg/kg-body weight, prepared with olive oil to provide a final volume of 100 μl) was orally administrated to each mouse every day for 30 days.
After completing the measurement of the pulmonary function in Example 6, the mice were sacrificed. Pulmonary tissue samples were taken from the mice, and separated into two groups (each group comprised samples from the control group, oil group, low-dose group and high-dose group). One of the two groups was preserved at −20° C. for the follow-up experiment, and the other group was analyzed by hematoxylin-sosin stain (H&E stain).

[2] = High-dose group, compound (1) 50 mg/kg orally daily 30 days
[3] = Low-dose group, compound (1) 10 mg/kg orally daily 30 days

In the case of `CCCC=C1OC(=O)c2ccccc21` [compound (1)], the “Relative expression level (fold) TGF-β protein” value (TGF-β protein; Group B: NHLF with pcDNA3.1 empty vector, then compound (1) 15 μg/ml 24 h, control group I = 1, TGF-β1-only group A = 0.84) is reported as 0.89 fold, the “Relative expression level (fold) TGF-β protein” value (TGF-β protein; Group C: NHLF with pcDNA3.1 empty vector, then compound (1) 30 μg/ml 24 h, control group I = 1, TGF-β1-only group A = 0.84) is reported as 0.69 fold and the “Relative expression level (fold) TGF-β protein” value (TGF-β protein; Group E: NHLF with pcDNA3.1-SOX2 plasmid, then compound (1) 15 μg/ml 24 h, control group II = 1, TGF-β1-only group D = 0.86) is reported as 0.83 fold. For the same compound, the “Relative expression level (fold) TGF-β protein” value (TGF-β protein; Group F: NHLF with pcDNA3.1-SOX2 plasmid, then compound (1) 30 μg/ml 24 h, control group II = 1, TGF-β1-only group D = 0.86) was 0.71 fold, the “alveolar wall tissue thickness (H&E stain)” value [1, 2] was “significantly thinner” and the “level of abnormal infiltration of pulmonary cells (H&E stain)” value [1, 2] was “significantly less”. For the same compound, the “alveolar wall tissue thickness (H&E stain)” value [1, 3] was “significantly thinner” and the “level of abnormal infiltration of pulmonary cells (H&E stain)” value [1, 3] was “significantly less”.
